From US7026328B2, “Heterocyclic compounds which inhibit leukocyte adhesion mediated by α4 integrins” (Elan Pharmaceuticals, Inc., priority 2002, dated 2006)

Experiments:
[1] = Cassette Dosing and Serum Analysis for Determination of Bioavailability; assay type: in vivo, rat; conditions: average AUC 0→12 h, male Sprague Dawley rats, single oral cassette dose (6 compounds, total dose 10 mg/kg), plasma
Method: The cassette included 5 test articles and a standard compound, for a total dose of 10 mg/kg. Each compound/test article was converted to the sodium salt with equimolar 1 N NaOH and dissolved in water at 2 mg/mL. The cassette was prepared by mixing equal volumes of each of the six solutions. The cassette dosing solution was mixed well and then the pH was adjusted to 7.5–9. The dosing solution was prepared the day before the study and stirred overnight at room temperature.
Male Sprague Dawley (SD) rats from Charles River Laboratories, 6–8 weeks old were used in this screen. Rats were quarantined for at least one day and had continuous access to food and water. On the night before the administration of the cassette, the rats were fasted for approximately 16 h.
Four SD rats were assigned in each cassette. A single dose of the dosing solution was administered orally to each rat. The dosing volume (5 mL/kg) and time were recorded and rats were fed 2 h after dosing.
Blood samples were collected via cardiac puncture at the following time points: 4 h, 8 h and 12 h. Immediately prior to blood collection, rats were anesthetized with CO2 gas within 10–20 seconds. After the 12-h samples were collected, the rats were euthanized via CO2 asphyxiation followed by cervical dislocation.
Blood samples were kept in heparinized microtainer tubes under sub-ambient temperature (4° C.) before they were processed. Blood samples were centrifuged (10000 rpm for 5 minutes) and plasma samples were removed and stored in a −20° C. freezer until analyzed for drug levels. Drug levels in the plasma were analyzed using the following protocol for direct plasma precipitation.
The in vivo plasma samples were prepared in a 1.5 mL 96-well plate, by adding, in order, 100 μL of the test plasma, 150 μL of methanol, followed by vortexing for 10–20 seconds. 150 μL of 0.05 ng/μL of an Internal Standard in acetonitrile were added and vortexed for 30 seconds.
The standard curve samples were prepared in a 1.5 mL 96-well plate, by adding, in order, 100 μL of control mouse plasma, followed by 150 μL of methanol and vortexing for 10–20 seconds. 150 μL of 0.05 ng/μL of an Internal Standard in acetonitrile were added and vortexed for 30 seconds. The samples were spiked with 0–200 ng (10 concentrations) of the compound of interest in 50% methanol to obtain a standard curve range of 0.5 ng/mL–2,000 ng/mL. Again, the sample was vortexed for 30 seconds.
The samples were then spun for 20–30 minutes at 3000 rpm in an Eppendorf microfuge before 80–90% of supernatant was transferred into a clean 96-well plate. The organic solvent was then evaporated until the samples were dry (under N2 at 40° C./30–60 min (Zymark Turbovap)).
The residue was then dissolved in […] mobile phase (50% CH3OH/0.1% TFA). LC/MS/MS was then run using a PE-Sciex API-3000 triple quadurpole mass spectrometer (SN0749707), Perkin-Elmer, Series200auto-sampler, and shimadzu 10A pump. Acquisition was done with PE-Sciex Analyst (v1.1) and data analysis and quantification were accomplished using PE-Sciex Analyst (v1.1). A 5–50 μL sample volume was injected onto a reverse phase ThermoHypersil DASH-18 column (Keystone 2.0×20 mm, 5 μm, PN: 8823025-701) using a mobile phase of 25% CH3OH, 0.1% TFA-100% CH3OH, 0.1% TFA. The run time was about 8 minutes at a flow rate of about 300 μL/minutes.
The Area Under the Curve (AUC) was calculated using the linear trapezoidal rule from t=0 to the last sampling time tx (see Handbook of Basic Pharmacokinetics, Wolfgang A. Ritschel and Gregory L. Kearns, 5th ed, 1999). AUC^0→tx=S((Cn+Cn+1)/2))·(tn+1−tn)[(μg/mL)h]

α4β1 integrin = target: T1, α4β1 integrin (Homo sapiens, UniProt P05556+P13612); assay: α4β1 Integrin Adhesion Assay: Jurkat Cell Adhesion to Human Plasma Fibronectin; assay type: cell-based; conditions: Jurkat cells
T1 construct: Jurkat™ cells (maintained in log phase growth) were labeled with Calcein AM; endogenous in cells; host or cells: Jurkat cells
T1 sequence (P13612 34-1032): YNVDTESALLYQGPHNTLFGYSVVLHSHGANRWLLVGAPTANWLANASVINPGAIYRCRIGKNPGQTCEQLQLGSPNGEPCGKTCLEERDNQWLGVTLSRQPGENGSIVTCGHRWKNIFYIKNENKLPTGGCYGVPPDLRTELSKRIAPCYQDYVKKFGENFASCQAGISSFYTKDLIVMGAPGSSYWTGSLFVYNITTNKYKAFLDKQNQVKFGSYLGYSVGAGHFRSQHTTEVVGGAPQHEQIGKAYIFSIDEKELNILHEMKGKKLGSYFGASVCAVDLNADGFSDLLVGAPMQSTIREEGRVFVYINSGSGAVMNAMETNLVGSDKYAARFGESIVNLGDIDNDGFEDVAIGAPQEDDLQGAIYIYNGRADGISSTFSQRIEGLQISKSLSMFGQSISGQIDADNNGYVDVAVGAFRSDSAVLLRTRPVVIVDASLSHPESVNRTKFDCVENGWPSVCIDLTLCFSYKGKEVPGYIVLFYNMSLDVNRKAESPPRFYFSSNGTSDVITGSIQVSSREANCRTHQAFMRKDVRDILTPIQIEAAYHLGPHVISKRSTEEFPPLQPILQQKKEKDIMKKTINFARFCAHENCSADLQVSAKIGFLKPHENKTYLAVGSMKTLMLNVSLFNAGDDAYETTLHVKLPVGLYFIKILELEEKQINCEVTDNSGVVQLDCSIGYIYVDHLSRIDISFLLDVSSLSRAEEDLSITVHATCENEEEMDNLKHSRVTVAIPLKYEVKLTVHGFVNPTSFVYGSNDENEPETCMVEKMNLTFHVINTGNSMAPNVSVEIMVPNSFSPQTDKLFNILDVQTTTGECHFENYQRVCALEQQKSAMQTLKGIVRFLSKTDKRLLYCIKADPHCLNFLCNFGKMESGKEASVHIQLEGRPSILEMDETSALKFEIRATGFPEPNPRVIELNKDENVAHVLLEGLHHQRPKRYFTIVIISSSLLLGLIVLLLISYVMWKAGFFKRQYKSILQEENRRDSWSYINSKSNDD
T1 sequence (P05556 21-798): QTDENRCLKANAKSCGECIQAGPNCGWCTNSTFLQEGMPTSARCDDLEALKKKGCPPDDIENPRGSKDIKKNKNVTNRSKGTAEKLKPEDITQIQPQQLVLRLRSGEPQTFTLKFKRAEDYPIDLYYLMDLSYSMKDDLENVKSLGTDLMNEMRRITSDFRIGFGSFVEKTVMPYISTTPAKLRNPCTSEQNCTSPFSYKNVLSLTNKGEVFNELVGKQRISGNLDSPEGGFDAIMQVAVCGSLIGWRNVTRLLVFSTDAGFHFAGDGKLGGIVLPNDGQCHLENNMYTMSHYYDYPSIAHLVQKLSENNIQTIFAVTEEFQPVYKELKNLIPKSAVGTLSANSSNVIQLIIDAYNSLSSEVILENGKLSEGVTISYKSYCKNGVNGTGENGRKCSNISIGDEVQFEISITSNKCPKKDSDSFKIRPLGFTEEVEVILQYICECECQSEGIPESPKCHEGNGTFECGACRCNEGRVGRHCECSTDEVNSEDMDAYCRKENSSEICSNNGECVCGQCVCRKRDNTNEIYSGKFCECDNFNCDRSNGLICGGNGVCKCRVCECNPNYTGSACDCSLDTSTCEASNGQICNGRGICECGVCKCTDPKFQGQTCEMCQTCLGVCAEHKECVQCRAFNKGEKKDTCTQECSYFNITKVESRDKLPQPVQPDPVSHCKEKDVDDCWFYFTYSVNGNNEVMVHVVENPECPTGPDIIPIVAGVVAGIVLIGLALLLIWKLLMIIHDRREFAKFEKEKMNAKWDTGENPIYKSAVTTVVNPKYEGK
Method: 96 well plates (Costar 3590 EIA plates) were coated with human fibronectin (Gibco/BRL, cat #33016–023) at a concentration of 10 μg/mL overnight at 4° C. The plates were then blocked with a solution of bovine serum albumin (BSA; 0.3%) in saline. Jurkat™ cells (maintained in log phase growth) were labeled with Calcein AM according to the manufacturer's instructions, and suspended at a concentration of 2×10^6 cells/mL in Hepes/Saline/BSA. The cells were then exposed to test and control compounds for 30 minutes at room temperature before transfer to individual wells of the fibronectin coated plate. Adhesion was allowed to occur for 35 minutes at 37° C. The wells were then washed by gentle aspiration and pipetting with fresh saline. Fluorescence associated with the remaining adherent cells was quantified using a fluorescence plate reader at EX 485/EM 530.
Cell cultures were prepared by first splitting the stationary phase Jurkat™ cells at 1:10 on day one, and 1:2 on day two to perform assay on day 3. The cells split 1:10 on day one were split 1:4 on day 3 for a day 4 assay.
The assay plates were prepared by first making a working solution of Gibco/BRL Human Fibronectin (cat #33016-023) in PBS++, at 10 μg/mL. A Costar 3590 EIA plate was then coated with 50 μL/well for 2 hours at room temperature (thought it can also be left overnight at 4° C.). Finally the plate was asperated and blocked with Hepes/Saline Buffer, 100 μL/well, for 1 hour at RT followed by washing 3× with 150 μL of PBS++.
Compound dilutions were accomplished by preparing 1:3 serial dilutions of compounds as follows. For each plate (4 compounds/plate) 600 μL were added to 4 Bio-Rad Titertubes in a Titertube rack. […] Using Falcon Flexiplates, 100 μL of Hepes/Saline buffer or human serum were added to rows B through G. A multi-channel pipetter set to 180 μL was used to with four tips spaced evenly the pipetter. Each set of four tubes was mixed 5 times and 180 μL of 2× compound was transferred to the first column of each compound dilution in Row B, leaving Row A empty. 180 μL were added to the other wells in Row A. Serial dilutions were performed down the plate by transferring 50 μL to the next dilution and mixing 5 times, changing tips each time after mixing.
A 20 μg/mL solution in Hepes/Saline buffer or human serum, of 21/6 antibody was the positive control and was set aside in a reagent trough to add to cell suspension plate.
The cell staining was accomplished by first harvesting the log-phase Jurkat™ cells by centrifugation in 50 mL tubes (1100 rpm for 5 minutes). The cells were resuspended in 50 mL PBS++, spun, and resuspend in 20 mL PBS++. The cells were stained by adding 20 μL of Calcein AM for 30 minutes RT. The volume was brought to 50 mL with Hepes/Saline buffer and the cells were counted, spun, and resuspend to 2×10^6 cells/mL in Hepes/Saline buffer or human serum.
The compounds were incubated using the following procedure. In a new flexiplate, 65 μL of stained cells were added to Rows B through H. Then 65 μL of 2× compounds were added to the appropriate rows following the plate setup and mixed three times. 65 μL of 2×-21/6 antibody were added to Row H and mixed 3×. Finally the plate was incubated at room temperature for 30 minutes.
Fibronectin adhesion was measured using a fluorescent plate reader at EX 485/EM 530 after the following work up procedure. After incubation, the cells were mixed three times and 100 μL were transfered to the Fibronectin coated plates and incubated at 37° C. for about 35 minutes. Each plate was washed, row by row, by gently pipetting 100 μL of RT. PBS++ down the sides of the wells and turning the plate 90 degrees to aspirate. This procedure was repeated for a total of 3 washes. Each well was filled with 100 μL after washing by pipetting down the side of the well.
An IC50 value was calculated for each compound, both in the presence of the human serum and in the absence of human serum.

AUC [1] | IC50 (α4β1 integrin; containing human serum) [µM] | IC50 (α4β1 integrin; without the human serum) [µM] | Structure (SMILES)
14.818 (μg/mL)h | 0.483 | 0.00837 | CCN(CC)c1ncc(N(C)S(=O)(=O)c2ccc(F)cc2F)c(N[C@@H](Cc2ccc(OC(=O)N3CCCC3)cc2)C(=O)O)n1 [Example 11, N-(2-[N′,N′-diethylamino]-5-[N″-(2,4-difluorophenylsulfonyl)-N″-methylamino]pyrimidin-4-yl)-4′-(pyrrolidin-1-ylcarbonyloxy)-L-phenylalanine]
4.7816 (μg/mL)h | 0.227 | 0.00871 | CCN(CC)c1ncc(N(CC)S(=O)(=O)c2ccc(F)cc2F)c(N[C@@H](Cc2ccc(OC(=O)N3CCCC3)cc2)C(=O)O)n1 [Example 12, N-(2-[N′,N′-diethylamino]-5-[N″-(2,4-difluorophenylsulfonyl)-N″-ethylamino]pyrimidin-4-yl)-4′-(pyrrolidin-1-ylcarbonyloxy)-L-phenylalanine]
1.283 (μg/mL)h | 0.0895 | 0.00245 | CCN(CC)c1ncc(N(C)S(=O)(=O)c2ccc(F)cc2F)c(N[C@@H](Cc2ccc(OC(=O)N3CCC3)cc2)C(=O)O)n1 [Example 13, N-(2-[N′,N′-diethylamino]-5-[N″-(2,4-difluorophenylsulfonyl)-N″-methylamino]pyrimidin-4-yl)-4′-(azetidin-1-ylcarbonyloxy)-L-phenylalanine]
0.3566 (μg/mL)h | 0.0515 | 0.00339 | CCN(CC)c1ncc(N(CC)S(=O)(=O)c2ccc(F)cc2F)c(N[C@@H](Cc2ccc(OC(=O)N3CCC3)cc2)C(=O)O)n1 [Example 14, N-(2-[N′,N′-diethylamino]-5-[N″-(2,4-difluorophenylsulfonyl)-N″-ethylamino]pyrimidin-4-yl)-4′-(azetidin-1-ylcarbonyloxy)-L-phenylalanine]
23.808 (μg/mL)h | 0.565 | 0.0137 | C#CCN(c1cnc(N(CC)CC)nc1N[C@@H](Cc1ccc(OC(=O)N2CCCC2)cc1)C(=O)O)S(=O)(=O)c1ccc(F)cc1F [Example 16, N-(2-[N′,N′-diethylamino]-5-[N″-(2,4-difluorophenylsulfonyl)-N″-propargylamino]pyrimidin-4-yl)-4′-(pyrrolidin-1-ylcarbonyloxy)-L-phenylalanine]
0.8628 (μg/mL)h | 0.125 | 0.00524 | C#CCN(c1cnc(N(CC)CC)nc1N[C@@H](Cc1ccc(OC(=O)N2CCC2)cc1)C(=O)O)S(=O)(=O)c1ccc(F)cc1F [Example 17, N-(2-[N′,N′-diethylamino]-5-[N″-(2,4-difluorophenylsulfonyl)-N″-propargylamino]pyrimidin-4-yl)-4′-(azetidin-1-ylcarbonyloxy)-L-phenylalanine]
4.7528 (μg/mL)h | 0.48 | 0.00586 | C#CCN(c1cnc(N(CC)CC)nc1N[C@@H](Cc1ccc(OC(=O)N2CCC2)cc1)C(=O)O)S(=O)(=O)c1ccc(F)cc1 [Example 18, N-(2-[N′,N′-diethylamino]-5-[N″-(4-fluorophenylsulfonyl)-N″-propargylamino]pyrimidin-4-yl)-4′-(azetidin-1-ylcarbonyloxy)-L-phenylalanine]
